Some test systems named below: A498 renal; CCRF-CEM leukemia; HCT-15 colon; MCF7 breast; RXF 393 renal; SK-MEL-2 melanoma; SK-OV-3 ovarian; SN12C renal; SNB-19 CNS; UO-31 renal.
Common to all, as to assay: NCI-60 cell line screen, 48 h

Each structure is given as a SMILES string. Where “and” joins values, the source holds several entries; their conditions need not be identical. Equal entries are not always repeated.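 Compound exposure: 48 hours, 5 concentrations, 96-well plates. At the GI50, growth is halved. At the TGI there is no net growth.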

On to `O=C1/C(=C\c2ccc([N+](=O)[O-])cc2)CS(=O)(=O)C/C1=C/c1ccc([N+](=O)[O-])cc1`, for which the GI50 with A498 renal is 0.332 µM; in the experiment on CCRF-CEM leukemia it was 0.0128 µM; in the experiment with HCT-15 colon, 0.058 µM; in the experiment on MCF7 breast, 0.157 µM; in the experiment on SK-MEL-2 melanoma it was 0.366 µM; with SN12C renal, 0.344 µM and 0.366 µM. For the same molecule, the GI50 in the experiment on UO-31 renal is 0.605 µM. In addition, the TGI was 0.966 µM and 3.37 µM with A498 renal; 0.133 µM in the experiment on CCRF-CEM leukemia; 0.258 µM and 0.638 µM in the experiment on HCT-15 colon; 2.12 µM in the experiment with MCF7 breast; 1.45 µM in the experiment with RXF 393 renal; 3.17 µM in the experiment with SK-MEL-2 melanoma. Moreover, the TGI with SK-OV-3 ovarian was 15.5 µM; in the experiment on SN12C renal, 1.56 µM; in the experiment with SNB-19 CNS it was 22.2 µM; in the experiment with UO-31 renal it was 0.366 µM and 1.85 µM.
With `O=c1c(-c2ccc3c(c2)OCO3)coc2c(CO)c(O)ccc12`, the GI50 in the experiment on A498 renal is 1.76 µM; with CCRF-CEM leukemia it was 3.44 µM; in the experiment on HCT-15 colon, 2.35 µM; with MCF7 breast, 2.72 µM; in the experiment on RXF 393 renal it was 0.941 µM; with SK-MEL-2 melanoma, 2.25 µM. Moreover, the GI50 in the experiment with SK-OV-3 ovarian was 2.41 µM; in the experiment with SN12C renal, 1.82 µM; in the experiment on SNB-19 CNS it was 2.87 µM; with UO-31 renal, 2.89 µM. Further, the TGI with A498 renal was 3.95 µM; in the experiment on CCRF-CEM leukemia, above 100 µM; in the experiment with HCT-15 colon it was 6.46 µM; with MCF7 breast, 25.4 µM; with RXF 393 renal it was 2.29 µM; in the experiment on SK-MEL-2 melanoma, 5.87 µM. In addition, the TGI in the experiment with SK-OV-3 ovarian is 6.39 µM; in the experiment with SN12C renal, 5.51 µM; with SNB-19 CNS, 10.3 µM; in the experiment with UO-31 renal, 12 µM.
As to `Cc1ccc(C2NC(=S)N3C(c4ccc(C)cc4)NC(=S)N23)cc1` (configuration not stated), the GI50 in the experiment with A498 renal was 5.57 µM; in the experiment on CCRF-CEM leukemia, 2.46 µM; in the experiment with HCT-15 colon, 3.7 µM; in the experiment with MCF7 breast it was 2.73 µM; in the experiment on RXF 393 renal, 3.27 µM; in the experiment on SK-MEL-2 melanoma, 3.4 µM. Also, the GI50 with SK-OV-3 ovarian is 4.77 µM; in the experiment on SN12C renal it was 5.88 µM; in the experiment on SNB-19 CNS, 5.06 µM; in the experiment on UO-31 renal it was 12 µM. Also, the TGI was determined as 18 µM with A498 renal; 10.2 µM in the experiment with CCRF-CEM leukemia; 15.3 µM in the experiment on HCT-15 colon; 12.9 µM with MCF7 breast; 14.1 µM in the experiment on RXF 393 renal; 12.1 µM with SK-MEL-2 melanoma. Moreover, the TGI amounted to 15.5 µM in the experiment with SK-OV-3 ovarian, 19.4 µM in the experiment on SN12C renal, 17.7 µM in the experiment on SNB-19 CNS and 28.2 µM with UO-31 renal.
As to `O=C1c2cccc3cccc(c23)C(=O)N1CC#Cc1ccc2c3c(cccc13)C(=O)N(CCN1CCNCC1)C2=O`, the GI50 in the experiment on A498 renal was 15.4 µM; in the experiment on CCRF-CEM leukemia, 2.01 µM; in the experiment with HCT-15 colon, 14.9 µM; in the experiment on MCF7 breast it was 1.8 µM; with RXF 393 renal, 2.7 µM; in the experiment with SK-MEL-2 melanoma, 18.5 µM. The GI50 with SK-OV-3 ovarian is 25.7 µM; in the experiment with SN12C renal, 1.71 µM; in the experiment with SNB-19 CNS, 1.96 µM; in the experiment with UO-31 renal, 20.6 µM. The TGI was 31.1 µM in the experiment with A498 renal; 5.06 µM with CCRF-CEM leukemia; above 100 µM with HCT-15 colon; 3.72 µM in the experiment with MCF7 breast; 10.4 µM in the experiment on RXF 393 renal; 42 µM in the experiment on SK-MEL-2 melanoma. Moreover, the TGI in the experiment on SK-OV-3 ovarian came to 62.6 µM; with SN12C renal, 3.68 µM; in the experiment with SNB-19 CNS, 4.18 µM; in the experiment with UO-31 renal it was 84.8 µM.
Turning to `CCCCCCCCCCCCNC(=O)[C@H]1CSC(c2cc(Br)cs2)N1` (some centres not stated), the GI50 in the experiment on A498 renal is 7.38 µM; in the experiment on CCRF-CEM leukemia, 1.03 µM; in the experiment on HCT-15 colon, 1.03 µM; in the experiment with MCF7 breast, 2.16 µM; with RXF 393 renal, 1.18 µM; in the experiment with SK-MEL-2 melanoma, 0.916 µM. Also, the GI50 in the experiment with SK-OV-3 ovarian was 1.06 µM; in the experiment on SN12C renal it was 1.11 µM; in the experiment on SNB-19 CNS, 2.48 µM; with UO-31 renal, 0.979 µM. Moreover, the TGI in the experiment with A498 renal was 14.1 µM; in the experiment with CCRF-CEM leukemia, 2.51 µM; in the experiment on HCT-15 colon, 2.38 µM; in the experiment on MCF7 breast it was 8.82 µM; with RXF 393 renal, 2.6 µM; in the experiment with SK-MEL-2 melanoma, 1.77 µM. The TGI with SK-OV-3 ovarian is 2.23 µM; in the experiment with SN12C renal it was 2.56 µM; in the experiment with SNB-19 CNS, 8.49 µM; with UO-31 renal, 2.42 µM.
Regarding `Cc1cc(N2CCN(C)CC2)nc(N(CCNc2ccnc3cc(Cl)ccc23)Cc2ccco2)n1`, the GI50 was 4.79 µM in the experiment with A498 renal; 3.37 µM in the experiment on CCRF-CEM leukemia; 2.69 µM in the experiment with HCT-15 colon; 2.12 µM with MCF7 breast; 1.82 µM with RXF 393 renal; 2.26 µM with SK-MEL-2 melanoma. Also, the GI50 in the experiment on SK-OV-3 ovarian is 10.4 µM; in the experiment with SN12C renal it was 8.88 µM; in the experiment on SNB-19 CNS, 4.92 µM; in the experiment with UO-31 renal it was 2.66 µM. Moreover, the TGI in the experiment with A498 renal was found to be 17.3 µM; in the experiment with CCRF-CEM leukemia it was 10.2 µM; in the experiment on HCT-15 colon, 10.9 µM; in the experiment with MCF7 breast, 6.89 µM; with RXF 393 renal, 4.88 µM; with SK-MEL-2 melanoma it was 5.58 µM. The TGI in the experiment on SK-OV-3 ovarian turned out to be 22.1 µM; in the experiment with SN12C renal, 21 µM; in the experiment on SNB-19 CNS it was 16.5 µM; in the experiment with UO-31 renal, 11.9 µM.
Regarding `Cc1cc(NS(=O)(=O)c2ccc(NC(=O)COc3ccc(-c4cc5ccccc5[nH]4)cc3)cc2)no1`, the GI50 in the experiment with A498 renal was 1.7 µM; in the experiment with CCRF-CEM leukemia, 2.13 µM; with HCT-15 colon it was 2.32 µM; in the experiment with MCF7 breast, 2.08 µM; with RXF 393 renal, 1.24 µM; in the experiment on SK-MEL-2 melanoma, 1.86 µM. Also, the GI50 in the experiment with SK-OV-3 ovarian was 1.85 µM; in the experiment on SN12C renal it was 2.24 µM; in the experiment with SNB-19 CNS, 2.23 µM; in the experiment with UO-31 renal it was 1.41 µM. The TGI was 6.58 µM in the experiment on A498 renal; above 100 µM in the experiment with CCRF-CEM leukemia; 7.35 µM in the experiment on HCT-15 colon; 4.69 µM in the experiment on MCF7 breast; 2.6 µM with RXF 393 renal; 3.76 µM with SK-MEL-2 melanoma. Besides, the TGI was 3.55 µM in the experiment with SK-OV-3 ovarian, 10.4 µM in the experiment on SN12C renal, 8.69 µM in the experiment with SNB-19 CNS and 3.76 µM in the experiment on UO-31 renal.

The record behind these values is PubChem BioAssay (NCI).
